# Data published in patent publication US20110152210A1, “POLYPHENOL COMPOUNDS FOR INHIBITING PROTEASOME AND USES THEREOF” (THE ROYAL INSTITUTION FOR THE ADVANCEMENT OF …, priority 2009, published 2011).
# “Also recorded” adds a separate entry of the source.
# Key:
# [1] = molecular target: T1, Purified rabbit 20S proteasome (Oryctolagus cuniculus, UniProt G1T4Q9); assay: Inhibition of chymotrypsin-like activity of purified 20S proteasome; format: biochemical; settings: for inhibition of proteasomal chymotryptic activity (in words): 2 h; for IC50: Suc-LLVY-AMC, 2 h at 37° C., read-out: IC50, inhibition of proteasomal chymotrypsin-like activity
# T1 sequence (G1T4Q9 60-263): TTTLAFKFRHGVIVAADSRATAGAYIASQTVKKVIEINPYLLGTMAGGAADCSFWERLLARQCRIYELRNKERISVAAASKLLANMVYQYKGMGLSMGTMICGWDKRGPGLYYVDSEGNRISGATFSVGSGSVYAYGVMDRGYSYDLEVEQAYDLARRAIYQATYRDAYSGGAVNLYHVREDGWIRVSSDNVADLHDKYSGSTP
# Description: EGCG was used as a comparative standard. Materials. Purified rabbit 20S proteasome and fluorogenic substrate Suc-LLVY-AMC for the proteasomal chymotrypsinlike (CT-like) activity were obtained from Calbiochem Inc. (San Diego, Calif.). Fetal bovine serum (FBS) was from Tissue Culture Biologicals (Tulare, Calif.). Penicillin and streptomycin were purchased from Invitrogen Co. (Carlsbad, Calif.). RPMI 1640 medium was purchased from Invitrogen Co. (Carlsbad, Calif.). […] Inhibition of purified 20S proteasome activity by EGCG and its analogs.
# cancer cell lines = settings: a number of cancer cell lines; cited from earlier work
# [2] = system: human multiple myeloma ARP cells; assay: MTT assay in multiple myeloma ARP cells, alone or combined with Velcade; format: cell-based; settings: 48 hrs; for effect on cell proliferation in combination with bortezomib (in words): 20 μM with varying doses of Velcade; for inhibition of cell proliferation as single agent (in words): ARP cells
# Description: The cells were treated with Velcade alone or with 20 μM of compounds 5, 7 and 23 or in combination with varying doses of Velcade for 48 hrs, followed by a MTT assay.
# Deep purple color indicates fully viable cells; light purple color indicates a reduced number of viable cells; and yellowish color indicates an absence of viable cells.
# MTT assay. Cells were grown in a 96-well plate. Triplicate wells of cells were treated with indicated concentrations of EGCG or EGCG analogs for 24 h. After aspiration of medium, MTT (1 mg/ml) was then added to the cell cultures, followed by incubation for 3 h at 37° C. After cells were crystallized, MTT was removed and DMSO was added to dissolve the metabolized MTT product. The absorbance was then measured on a Wallac Victor3 1420 Multi-label counter at 540 nm.
smiles,measurement,setting,value
"CC(=O)Oc1cc(OC(C)=O)c2c(c1)O[C@H](c1cc(OC(C)=O)c(OC(C)=O)c(OC(C)=O)c1)[C@H](OC(=O)c1cc(OC(C)=O)c(OC(C)=O)c(OC(C)=O)c1)C2 [Compound 4, (−)Epigallocatechin gallate octa acetate, reference compound]",inhibition of proteasomal chymotryptic activity (in words),[1],"none of the resulting derivatives 4, 6, 8, 17 and 22 exhibited proteasomal inhibition"
same,growth inhibitory activity compared to EGCG (1) (in words),cancer cell lines,enhanced growth inhibitory activity
O=C(O[C@H]1Cc2ccccc2C[C@H]1OC(=O)c1cc(O)c(O)c(O)c1)c1cc(O)c(O)c(O)c1 [Compound 5],IC50,[1],19 µM
same,effect on cell proliferation in combination with bortezomib (in words),[2],interfered with; also recorded: partially block the inhibitory effect of bortezomib
O=C(O[C@H]1Cc2ccccc2C[C@H]1OC(=O)c1cc(O)cc(O)c1)c1cc(O)cc(O)c1 [Compound 7],IC50,[1],29 µM
same,effect on cell proliferation in combination with bortezomib (in words),[2],synergistic inhibitory effect
same,inhibition of cell proliferation as single agent (in words),[2],most potent cell proliferation inhibitor
CC(=O)Oc1cc(C(=O)O[C@H]2Cc3ccccc3C[C@H]2OC(C)=O)cc(OC(C)=O)c1OC(C)=O [Compound 17],inhibition of proteasomal chymotryptic activity (in words),[1],"none of the resulting derivatives 4, 6, 8, 17 and 22 exhibited proteasomal inhibition"
CC(=O)Oc1cc(OC(C)=O)cc(C(=O)O[C@H]2Cc3ccccc3C[C@H]2OC(C)=O)c1 [Compound 22],inhibition of proteasomal chymotryptic activity (in words),[1],"none of the resulting derivatives 4, 6, 8, 17 and 22 exhibited proteasomal inhibition"
"O=C(O[C@@H]1Cc2c(O)cc(O)cc2O[C@@H]1c1cc(O)c(O)c(O)c1)c1cc(O)c(O)c(O)c1 [EGCG, (−)Epigallocatechin gallate, reference compound]",inhibition of proteasomal chymotryptic activity (in words),[1],potently inhibited
"CC(C)C[C@H](NC(=O)[C@H](Cc1ccccc1)NC(=O)c1cnccn1)B(O)O [bortezomib, reference compound]",inhibition of cell proliferation as single agent (in words),[2],reduced cell proliferation in a dose-dependent manner
